Activity calls are given as the source filed them.
How the values were obtained:
[1] = target: Peroxisome proliferator-activated receptor gamma/Nuclear receptor coactivator 3 (Homo sapiens, UniProt P37231); type: functional;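 further: agonist potency for raising coactivator recruitment to the receptor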
[2] = target: Peroxisome proliferator-activated receptor gamma/Nuclear receptor coactivator 2 (Homo sapiens, UniProt P37231); type: functional;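 further: agonist potency for raising coactivator recruitment to the receptor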
Peroxisome proliferator-activated receptor gamma/Nuclear receptor coactivator 2, sequence (P37231 whole entry): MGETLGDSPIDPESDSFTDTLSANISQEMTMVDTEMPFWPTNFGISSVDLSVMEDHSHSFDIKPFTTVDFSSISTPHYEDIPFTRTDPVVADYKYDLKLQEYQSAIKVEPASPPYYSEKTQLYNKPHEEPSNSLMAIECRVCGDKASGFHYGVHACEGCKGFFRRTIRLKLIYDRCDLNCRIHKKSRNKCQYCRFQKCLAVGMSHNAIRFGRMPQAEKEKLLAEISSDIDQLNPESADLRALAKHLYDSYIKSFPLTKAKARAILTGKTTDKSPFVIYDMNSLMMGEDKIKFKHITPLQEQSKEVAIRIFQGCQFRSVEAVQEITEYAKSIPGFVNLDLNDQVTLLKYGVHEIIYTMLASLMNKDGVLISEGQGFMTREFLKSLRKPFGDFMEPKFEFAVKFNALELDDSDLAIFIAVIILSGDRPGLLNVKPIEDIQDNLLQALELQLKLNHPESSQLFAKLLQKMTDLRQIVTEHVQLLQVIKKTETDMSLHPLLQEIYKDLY
Peroxisome proliferator-activated receptor gamma/Nuclear receptor coactivator 2, sequence (Q15596 whole entry, further chain): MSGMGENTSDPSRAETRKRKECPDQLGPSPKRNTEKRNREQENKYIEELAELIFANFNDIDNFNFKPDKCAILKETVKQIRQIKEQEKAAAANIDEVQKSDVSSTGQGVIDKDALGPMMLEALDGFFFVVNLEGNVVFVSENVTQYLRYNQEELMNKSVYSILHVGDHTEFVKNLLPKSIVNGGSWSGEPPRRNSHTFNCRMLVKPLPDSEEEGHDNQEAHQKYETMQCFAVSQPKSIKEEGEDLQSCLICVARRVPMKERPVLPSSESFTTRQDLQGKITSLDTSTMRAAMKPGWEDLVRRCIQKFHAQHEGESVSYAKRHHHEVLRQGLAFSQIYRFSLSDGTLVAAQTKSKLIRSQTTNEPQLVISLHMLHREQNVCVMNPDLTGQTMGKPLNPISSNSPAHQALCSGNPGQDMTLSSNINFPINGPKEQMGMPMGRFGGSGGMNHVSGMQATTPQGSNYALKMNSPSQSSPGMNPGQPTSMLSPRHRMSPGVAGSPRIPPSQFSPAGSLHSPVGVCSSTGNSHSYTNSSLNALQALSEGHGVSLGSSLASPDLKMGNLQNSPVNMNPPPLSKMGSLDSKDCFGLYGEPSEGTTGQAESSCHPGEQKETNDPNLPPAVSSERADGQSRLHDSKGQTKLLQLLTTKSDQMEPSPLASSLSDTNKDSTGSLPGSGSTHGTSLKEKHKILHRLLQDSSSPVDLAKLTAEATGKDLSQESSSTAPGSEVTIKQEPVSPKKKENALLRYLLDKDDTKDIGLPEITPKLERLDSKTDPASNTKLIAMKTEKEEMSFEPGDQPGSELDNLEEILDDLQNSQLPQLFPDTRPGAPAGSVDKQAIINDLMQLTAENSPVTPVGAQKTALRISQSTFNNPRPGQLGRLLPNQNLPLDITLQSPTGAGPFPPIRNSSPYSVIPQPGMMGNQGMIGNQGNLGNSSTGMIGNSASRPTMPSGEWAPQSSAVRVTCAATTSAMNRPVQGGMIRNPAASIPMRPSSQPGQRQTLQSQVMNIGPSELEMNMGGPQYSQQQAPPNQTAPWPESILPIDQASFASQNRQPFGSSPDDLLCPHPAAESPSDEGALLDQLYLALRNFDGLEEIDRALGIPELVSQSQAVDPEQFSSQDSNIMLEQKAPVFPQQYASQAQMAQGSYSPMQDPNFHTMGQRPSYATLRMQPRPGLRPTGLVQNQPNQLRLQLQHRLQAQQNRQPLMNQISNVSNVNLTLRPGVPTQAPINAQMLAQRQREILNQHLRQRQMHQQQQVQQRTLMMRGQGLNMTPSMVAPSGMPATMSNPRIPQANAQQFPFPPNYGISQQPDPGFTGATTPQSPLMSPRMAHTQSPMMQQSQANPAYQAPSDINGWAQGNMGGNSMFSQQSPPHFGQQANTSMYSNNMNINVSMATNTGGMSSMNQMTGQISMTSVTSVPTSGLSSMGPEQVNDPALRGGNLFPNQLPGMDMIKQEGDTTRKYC

[3] = target: Peroxisome proliferator-activated receptor gamma/Nuclear receptor coactivator 1 (Homo sapiens, UniProt P37231); type: functional;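 further: agonist potency as compounds enhance coactivator SRC-1 recruitment to PPARgamma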
[4] = target: Mitogen-activated protein kinase 10 (Homo sapiens, UniProt P53779); test: Dose response biochemical screening assay for inhibitors of c-Jun N-Terminal Kinase 3 (JNK3). [Related pubchem assays: 746 ]
Mitogen-activated protein kinase 10, sequence (P53779 whole entry): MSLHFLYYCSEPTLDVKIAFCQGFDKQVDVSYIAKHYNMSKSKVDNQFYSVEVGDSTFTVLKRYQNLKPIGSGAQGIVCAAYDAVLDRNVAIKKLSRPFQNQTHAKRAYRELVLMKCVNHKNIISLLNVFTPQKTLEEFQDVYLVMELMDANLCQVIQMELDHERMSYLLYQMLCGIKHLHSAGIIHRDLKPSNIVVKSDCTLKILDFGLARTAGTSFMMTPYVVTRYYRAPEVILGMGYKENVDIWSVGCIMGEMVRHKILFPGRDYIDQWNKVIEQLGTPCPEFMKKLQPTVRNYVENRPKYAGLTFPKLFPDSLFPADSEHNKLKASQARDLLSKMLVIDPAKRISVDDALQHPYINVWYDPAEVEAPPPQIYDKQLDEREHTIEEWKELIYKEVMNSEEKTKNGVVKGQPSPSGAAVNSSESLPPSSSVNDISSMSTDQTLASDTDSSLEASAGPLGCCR

[5] = target: T1, Histone-lysine N-methyltransferase NSD2 (Homo sapiens, UniProt O96028); type: biochemical
T1 sequence (O96028 whole entry): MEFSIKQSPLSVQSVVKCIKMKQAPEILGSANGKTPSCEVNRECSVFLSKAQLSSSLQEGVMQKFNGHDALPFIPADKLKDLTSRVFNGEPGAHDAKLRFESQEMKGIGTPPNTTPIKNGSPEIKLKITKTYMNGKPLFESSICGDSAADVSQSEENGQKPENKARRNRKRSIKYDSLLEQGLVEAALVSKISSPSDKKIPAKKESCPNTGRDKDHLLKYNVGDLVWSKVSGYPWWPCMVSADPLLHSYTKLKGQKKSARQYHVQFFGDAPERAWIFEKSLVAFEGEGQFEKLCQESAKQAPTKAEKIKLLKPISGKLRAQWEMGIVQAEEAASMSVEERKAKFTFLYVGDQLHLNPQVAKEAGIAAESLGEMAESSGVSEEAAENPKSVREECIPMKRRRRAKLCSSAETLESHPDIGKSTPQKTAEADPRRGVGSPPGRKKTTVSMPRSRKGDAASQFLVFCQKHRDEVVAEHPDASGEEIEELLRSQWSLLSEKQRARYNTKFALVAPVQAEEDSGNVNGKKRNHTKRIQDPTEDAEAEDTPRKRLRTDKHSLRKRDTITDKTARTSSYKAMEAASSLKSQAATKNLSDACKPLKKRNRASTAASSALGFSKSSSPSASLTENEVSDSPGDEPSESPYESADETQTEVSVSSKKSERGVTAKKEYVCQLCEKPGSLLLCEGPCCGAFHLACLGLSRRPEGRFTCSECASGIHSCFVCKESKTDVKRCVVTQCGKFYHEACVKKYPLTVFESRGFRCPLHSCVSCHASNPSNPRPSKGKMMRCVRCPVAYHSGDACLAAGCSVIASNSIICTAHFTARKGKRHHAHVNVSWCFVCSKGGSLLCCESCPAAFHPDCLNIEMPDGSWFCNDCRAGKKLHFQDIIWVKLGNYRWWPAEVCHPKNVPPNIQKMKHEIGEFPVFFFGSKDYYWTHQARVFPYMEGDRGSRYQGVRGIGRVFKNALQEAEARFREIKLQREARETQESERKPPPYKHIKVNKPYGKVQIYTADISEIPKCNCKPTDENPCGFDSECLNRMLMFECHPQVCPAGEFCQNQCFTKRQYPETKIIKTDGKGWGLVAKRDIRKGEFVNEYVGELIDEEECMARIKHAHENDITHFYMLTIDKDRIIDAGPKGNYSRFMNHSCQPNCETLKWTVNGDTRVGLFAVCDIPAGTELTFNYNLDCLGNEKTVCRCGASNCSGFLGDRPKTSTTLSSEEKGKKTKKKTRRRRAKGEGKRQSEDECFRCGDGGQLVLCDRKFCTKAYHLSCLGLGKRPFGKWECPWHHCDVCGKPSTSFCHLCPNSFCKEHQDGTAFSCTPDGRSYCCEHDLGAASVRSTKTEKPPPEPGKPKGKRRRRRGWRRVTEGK

HT-1080 = test: cytotoxicity in HT1080 fibrosarcoma cells, cell-based, fluorescence readout (AID 620); type: functional; conditions: Homo sapiens
[6] = target: Glyceraldehyde-3-phosphate dehydrogenase (Homo sapiens, UniProt P04406)
Glyceraldehyde-3-phosphate dehydrogenase, sequence (P04406 whole entry): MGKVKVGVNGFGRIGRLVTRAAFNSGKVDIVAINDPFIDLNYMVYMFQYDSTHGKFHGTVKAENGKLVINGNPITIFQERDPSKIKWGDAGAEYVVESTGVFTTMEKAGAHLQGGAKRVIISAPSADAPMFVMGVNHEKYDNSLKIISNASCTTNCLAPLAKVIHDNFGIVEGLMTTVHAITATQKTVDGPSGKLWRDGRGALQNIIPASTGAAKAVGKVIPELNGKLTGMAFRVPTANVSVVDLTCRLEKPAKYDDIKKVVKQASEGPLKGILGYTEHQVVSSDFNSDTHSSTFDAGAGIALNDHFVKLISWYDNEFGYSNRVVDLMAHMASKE

[7] = target: T2, Heat shock factor protein 1 (Mus musculus, UniProt P38532); test: inhibition of MG132-induced HSE-luciferase signal, confirmation, cell-based, NIH3T3, luminescence, dose retest (AID 2382); type: functional;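 further: NIH3T3 fibroblasts with HSF1-driven luciferase reporter stressed by proteasome inhibitor MG132; luminescence from HSF1-driven luciferase expression after 8 hours of MG132 stress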
T2 sequence (P38532 whole entry): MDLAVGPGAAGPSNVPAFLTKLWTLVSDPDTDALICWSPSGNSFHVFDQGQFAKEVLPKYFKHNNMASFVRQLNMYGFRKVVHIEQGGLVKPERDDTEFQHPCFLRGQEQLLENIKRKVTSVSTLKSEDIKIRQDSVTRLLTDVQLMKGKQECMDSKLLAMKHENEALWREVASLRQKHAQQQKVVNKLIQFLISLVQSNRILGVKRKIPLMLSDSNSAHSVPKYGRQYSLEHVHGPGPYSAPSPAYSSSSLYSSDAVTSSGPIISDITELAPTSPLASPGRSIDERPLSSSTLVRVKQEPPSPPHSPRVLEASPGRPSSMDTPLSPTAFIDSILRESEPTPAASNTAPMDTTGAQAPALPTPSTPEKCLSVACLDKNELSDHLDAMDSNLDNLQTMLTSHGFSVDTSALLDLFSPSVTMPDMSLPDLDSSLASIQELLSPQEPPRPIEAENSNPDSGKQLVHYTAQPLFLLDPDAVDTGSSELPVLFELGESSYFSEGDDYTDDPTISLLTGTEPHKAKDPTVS

[8] = target: T3, Microphthalmia-associated transcription factor (Homo sapiens, UniProt O75030); test: TRPM1 promoter luciferase signal decrease, dose response, MITF inhibitor project, cell-based, SK-MEL-5, cherry-picked, set 3 (AID 493073); type: functional
T3 sequence (O75030 whole entry): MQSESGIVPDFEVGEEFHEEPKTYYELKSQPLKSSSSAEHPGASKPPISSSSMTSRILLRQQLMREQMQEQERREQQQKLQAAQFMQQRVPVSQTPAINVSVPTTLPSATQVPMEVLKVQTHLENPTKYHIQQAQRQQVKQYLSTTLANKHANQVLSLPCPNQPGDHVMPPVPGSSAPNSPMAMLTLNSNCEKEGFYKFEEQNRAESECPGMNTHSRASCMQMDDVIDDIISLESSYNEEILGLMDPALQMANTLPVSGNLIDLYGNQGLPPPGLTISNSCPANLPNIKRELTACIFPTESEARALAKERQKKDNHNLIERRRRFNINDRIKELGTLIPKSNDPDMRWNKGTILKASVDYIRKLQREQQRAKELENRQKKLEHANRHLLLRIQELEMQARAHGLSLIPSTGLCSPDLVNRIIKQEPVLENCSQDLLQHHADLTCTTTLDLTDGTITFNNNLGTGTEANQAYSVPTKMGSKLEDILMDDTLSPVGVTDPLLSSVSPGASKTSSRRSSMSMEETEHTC

[9] = target: Luciferin 4-monooxygenase (Photinus pyralis, UniProt P08659); test: Counter Screen for Luciferase-based Assay Positives. [Related pubchem assays: 620, 618, 411 ]
[10] = cytotoxicity in KRAS-transformed pancreatic duct cells, primary screen, cell-based, fluorescence, HTS (AID 431); type: functional; conditions: Homo sapiens;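 further: cell line used: HPDE-C7K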
[11] = cytotoxicity in HPDE-C7 cells, cell-based, fluorescence, HTS (AID 430); type: functional; conditions: Homo sapiens
[12] = microbe, parasite or virus in culture; type: functional; conditions: Mycobacterium tuberculosis
[13] = P. falciparum Dd2 growth inhibitors, dose response, SYBR Green, cherry-picked samples (AID 1159567); type: functional, cell-based
[14] = P. falciparum 3D7-ScDHODH growth inhibitors, dose response, SYBR Green, dry powder samples (AID 1159570); type: functional, cell-based;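 further: parasite growth measured after 72 hours of compound exposure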
[15] = P. falciparum Dd2 growth inhibitors, dose response, SYBR Green, dry powder samples (AID 1159566); type: functional, cell-based;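 further: potency for growth inhibition with lower SYBR green DNA signal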
[16] = P. falciparum ATP4 D1247Y mutant growth inhibitors, dose response, NITD609-resistant line, SYBR Green, dry powder (AID 1159571); type: functional, cell-based;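 further: parasites synchronized at ring stage by sorbitol before testing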
[17] = Luminescence Cell-Based Dose Retest to Confirm Inhibitors of Cancer Stem Cells. [Related pubchem assays (depositor defined):AID2717, AID2721]; type: functional; conditions: Homo sapiens
[18] = P. falciparum late gametocyte killing, dose response, luminescence (AID 1117278); type: functional, cell-based;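 further: gametocytes exposed to compound for 24 hours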
[19] = Jurkat T cell cytotoxicity, dose response, cytotoxicity control for P. falciparum gametocyte viability project, luminescence (AID 1117277); type: functional, cell-based;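 further: potency reflects loss of cellular ATP meaning fewer viable cells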
[20] = cytotoxicity toward NIH3T3 fibroblasts, dose response, counter-screen, cell-based, ATP luminescence, mouse fibroblasts (AID 2010); type: functional;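 further: cells exposed to compound for about 90 hours before reading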
[21] = HEK293T cytotoxicity, dose response, cytotoxicity control for miR-122 modulator project, cell-based, inhibitor set, cherry-pick, set 2 (AID 720697); type: functional
[22] = inhibitors of intracellular T. cruzi replication, confirmation, NIH3T3 host cells, beta-gal luminescence (AID 2044); type: functional, cell-based;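 further: intracellular parasites grown in NIH/3T3 mouse fibroblasts as host cells; luminescent beta-galactosidase reporter signal from transgenic T. cruzi replicating inside host cells; inhibitors lower the luminescence signal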
Protein skinhead-1 = target: T4, Protein skinhead-1 (Caenorhabditis elegans, UniProt P34707); type: functional
T4 sequence (P34707 whole entry): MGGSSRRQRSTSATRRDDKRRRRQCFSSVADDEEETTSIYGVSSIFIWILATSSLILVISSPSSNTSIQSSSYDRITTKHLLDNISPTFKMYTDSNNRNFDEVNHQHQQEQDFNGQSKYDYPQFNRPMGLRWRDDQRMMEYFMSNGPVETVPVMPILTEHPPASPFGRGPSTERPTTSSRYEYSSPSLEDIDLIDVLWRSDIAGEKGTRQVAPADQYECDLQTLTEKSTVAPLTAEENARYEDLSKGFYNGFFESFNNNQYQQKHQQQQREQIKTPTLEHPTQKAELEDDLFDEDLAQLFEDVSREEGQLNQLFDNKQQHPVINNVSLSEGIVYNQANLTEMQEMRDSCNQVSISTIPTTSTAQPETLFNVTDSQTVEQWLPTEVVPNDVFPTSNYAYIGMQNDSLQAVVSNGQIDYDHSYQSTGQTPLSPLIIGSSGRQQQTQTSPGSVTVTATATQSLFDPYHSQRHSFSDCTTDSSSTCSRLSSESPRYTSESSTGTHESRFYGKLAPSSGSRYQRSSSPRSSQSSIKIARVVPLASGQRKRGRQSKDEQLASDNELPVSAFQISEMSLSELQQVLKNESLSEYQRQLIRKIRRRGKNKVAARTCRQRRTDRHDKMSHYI

H9c2 = test: cells; type: functional, cell-based; conditions: Rattus norvegicus, H9c2, Myocardium
cells = type: functional
[23] = THP-1 cell cytotoxicity, dose response, cytotoxicity control for non-replicating M. tuberculosis project (AID 489025); type: functional

Peroxisome proliferator-activated receptor gamma/Nuclear receptor coactivator 3, sequence (P37231 whole entry): as the sequence (P37231 whole entry) above
Peroxisome proliferator-activated receptor gamma/Nuclear receptor coactivator 3, sequence (Q9Y6Q9 whole entry, further chain): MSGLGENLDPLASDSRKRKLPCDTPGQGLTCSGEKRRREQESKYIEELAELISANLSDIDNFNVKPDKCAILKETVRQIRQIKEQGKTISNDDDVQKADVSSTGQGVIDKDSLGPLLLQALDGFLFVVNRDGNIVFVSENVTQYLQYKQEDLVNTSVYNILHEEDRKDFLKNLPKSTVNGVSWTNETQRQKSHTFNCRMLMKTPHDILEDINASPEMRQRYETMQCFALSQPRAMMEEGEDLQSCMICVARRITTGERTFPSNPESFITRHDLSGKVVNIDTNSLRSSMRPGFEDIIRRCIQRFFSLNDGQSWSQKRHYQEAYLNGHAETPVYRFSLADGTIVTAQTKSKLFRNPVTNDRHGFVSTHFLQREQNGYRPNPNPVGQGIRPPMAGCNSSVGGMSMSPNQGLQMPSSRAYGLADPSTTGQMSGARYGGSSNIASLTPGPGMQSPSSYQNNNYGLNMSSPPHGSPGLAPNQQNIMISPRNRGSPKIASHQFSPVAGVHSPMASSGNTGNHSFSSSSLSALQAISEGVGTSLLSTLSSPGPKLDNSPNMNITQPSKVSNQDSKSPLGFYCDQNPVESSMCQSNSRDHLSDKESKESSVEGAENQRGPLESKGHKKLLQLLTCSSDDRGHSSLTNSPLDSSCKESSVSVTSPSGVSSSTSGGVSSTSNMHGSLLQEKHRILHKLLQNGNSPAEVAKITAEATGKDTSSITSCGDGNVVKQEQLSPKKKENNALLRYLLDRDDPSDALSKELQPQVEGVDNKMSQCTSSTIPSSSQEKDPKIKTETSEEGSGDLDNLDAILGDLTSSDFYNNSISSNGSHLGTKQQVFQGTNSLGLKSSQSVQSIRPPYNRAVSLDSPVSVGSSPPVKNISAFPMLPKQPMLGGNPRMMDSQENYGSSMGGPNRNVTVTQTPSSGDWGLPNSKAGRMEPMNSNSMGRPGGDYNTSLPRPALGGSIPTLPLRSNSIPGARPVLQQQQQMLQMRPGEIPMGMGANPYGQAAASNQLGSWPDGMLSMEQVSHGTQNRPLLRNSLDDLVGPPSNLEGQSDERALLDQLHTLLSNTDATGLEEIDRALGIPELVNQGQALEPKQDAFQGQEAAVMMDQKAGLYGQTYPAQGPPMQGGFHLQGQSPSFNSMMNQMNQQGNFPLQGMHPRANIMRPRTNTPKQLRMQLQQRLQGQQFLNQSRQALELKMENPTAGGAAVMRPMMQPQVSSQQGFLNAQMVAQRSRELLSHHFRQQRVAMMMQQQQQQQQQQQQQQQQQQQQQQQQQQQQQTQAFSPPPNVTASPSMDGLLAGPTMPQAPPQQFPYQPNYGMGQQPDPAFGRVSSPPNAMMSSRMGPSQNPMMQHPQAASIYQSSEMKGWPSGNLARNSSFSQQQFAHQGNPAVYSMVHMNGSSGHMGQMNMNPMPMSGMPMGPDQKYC

## Cc1ccccc1-n1c(S)nnc1-c1ccco1
[1]
  EC50: > 79.4 µM (not active)
[2]
  EC50: > 79.4 µM (not active)
[3]
  EC50: > 79.4 µM (not active)

## CCn1c(C(C)NC(C)=O)nc2ccccc21 (centres undefined)
[4]
  IC50: > 93.1 µM (not active)

## CNCCCOc1cccc(OC(C)C)c1
[5]
  AC50: 17.3 µM (active)

## Cc1cc(C(=O)Nc2cccc(C(=O)O)c2)oc1C
HT-1080
  EC50: > 50 µM (not active)
[6]
  IC50: > 100 µM (not active)
[7]
  EC50: 6.56 µM (active)
[8]
  AC50: 4.35 µM (active)
[9]
  EC50: < 0.2 µM (active)

## COc1ccc(-c2cc3nnc(-c4ccccc4)nc3s2)cc1
HT-1080
  EC50: > 50 µM (not active)
[6]
  IC50: > 100 µM (not active)
[9]
  EC50: 0.27 µM (active)

## COc1cccc(N2CCN(c3[nH]cnc4c5ccccc5nc3-4)CC2C)c1 (centres undefined)
[10]
  EC50: 3.01 µM (active)
[11]
  EC50: 3.33 µM (active)
[12]
  CC50: 7.28 µM (active)

## COc1ccc(C#Cc2ccc3c(c2)O[C@@H](CN(C)C(=O)Nc2cccc(OC)c2)[C@H](C)CN([C@H](C)CO)S3(=O)=O)cc1
[13]
  AC50: 1.5 µM (active)
[14]
  AC50: 0.799 µM (active)
[15]
  AC50: 0.662 µM (active)
[16]
  AC50: 0.986 µM (active)

## CC(C)(C)c1nc(N2CCN(C(=O)c3ccco3)CC2)c2nnn(Cc3ccccc3Cl)c2n1
[17]
  AC50: 3.44 µM (active)
[10]
  EC50: 5.38 µM (active)
[11]
  EC50: 4.47 µM (active)

## CCCn1c(=S)[nH]c2cc(C(=O)N3CCc4ccccc4C3)ccc2c1=O
[18]
  IC50: > 109 µM (inactive)
[19]
  IC50: > 83.3 µM (inactive)

## C[C@H](CO)N1C[C@H](C)[C@H](CN(C)S(=O)(=O)c2ccc(C#N)cc2)OCc2ccccc2-c2c(n(C)c3ccccc23)C1=O
[13]
  AC50: 1.25 µM (active)
[14]
  AC50: 0.563 µM (active)
[15]
  AC50: 0.314 µM (active)
[16]
  AC50: 0.41 µM (active)

## COc1ccc(-c2c3c([nH]c(=S)c2C#N)CCC3)cc1
[4]
  IC50: 17.6 µM (not active)

## O=C(Cc1c[nH]c2ccccc12)Nc1nccs1
[18]
  IC50: > 109 µM (inactive)
[19]
  IC50: > 83.3 µM (inactive)

## COCCCNC(=O)c1c(N)n(/N=C/c2cccs2)c2nc3ccccc3nc12
[10]
  EC50: > 20 µM (not active)
[11]
  EC50: 9.78 µM (active)

## Cc1ccc(NC(=O)C2CCN(c3nc(C)cc(C)n3)CC2)cc1
[18]
  IC50: > 109 µM (inactive)
[19]
  IC50: > 83.3 µM (inactive)

## CN(C)/C=N/C(=O)/C(C#N)=C1\CCc2ccccc2N1
[4]
  IC50: > 93.1 µM (not active)

## CCN(CC)CCCNC(=O)c1ccc2c(SCC(=O)O)c3c(nc2c1)CCC3
[1]
  EC50: > 79.4 µM (not active)
[2]
  EC50: > 79.4 µM (not active)
[3]
  EC50: > 79.4 µM (not active)

## N=c1c2c(-c3ccccc3)c(-c3ccccc3)n(Cc3ccccc3)c2ncn1CCCO
[20]
  EC50: > 60 µM (inconclusive)
[21]
  AC50: 7.08 µM (active)
[22]
  EC50: 1.26 µM (active)
Protein skinhead-1
  IC50: > 100 µM (inactive)

## O=C(CCCn1c(=O)[nH]c2cc(Cl)ccc2c1=O)NCCCN1CCCC1
[18]
  IC50: > 109 µM (inactive)
[19]
  IC50: > 83.3 µM (inactive)

## NC(N)=Nc1nc(CSCCC(N)=NS(N)(=O)=O)cs1 [FAMOTIDINE]
[1]
  EC50: > 79.4 µM (not active)
[2]
  EC50: > 79.4 µM (not active)
[3]
  EC50: > 79.4 µM (not active)

## COc1ccc(OC)c(Nc2nc(N)nc(-c3cc4ccccc4o3)n2)c1
[4]
  IC50: 47.8 µM (not active)
H9c2
  IC50: > 79 µM (inactive)

## C/C=C/c1ccc([C@H]2[C@@H](CO)N[C@@H]2CN(CC)C(=O)CN2CCOCC2)cc1
[21]
  AC50: 47.6 µM (active)

## Nc1nc2ccccc2n1CCOc1ccc(Br)cc1
cells
  IC50: 31.8 µM (active)
[23]
  CC50: 39.4 µM (active)
